Measurements reported in patent US7365191B2, “Type of oligosaccharides and their sulfate derivatives” (Shanghaimed Co., Ltd, priority 2001, dated 2008).

How the values were obtained:
U14 tumor cells = experiment: Inhibition of U14 tumor implanted in mice; details: for inhibition (%) / quotient of noumenal tumor (%): U14 implanted mice; for quotient of noumenal tumor (%): ±SD
Procedure: Thus, the inhibition of tumor cells by the said oligosaccharides was tested using implanted tumor cells in mice. • (1) Tests of the said Oligosaccharides and their Sulfates on Mice in which Tumor Cells were Implanted. A. Materials and Methods
Cell line for the tests: U14 cell line was procured from The Tumor Research Group, The Institute of Chinese Herbal Medicine, Chinese Academy of Traditional Chinese Medicine;
Animals for the tests: 70 Kunming male mice (weight 20±2 g, grade II) were obtained from the Experimental Animal Center, the Chinese Academy of Medicine.
Medicine for control test: Cyclophosphamide was obtained from Shanghai Hualian Pharmaceutical Ltd, permit number 012034, 1995, Shanghai.
Mice grouping and administration: • a. U14 cell line group: physical saline, IP, 0.2 mL/d×10 d • b. Group treated with hexasaccharide 18: IP 10 mg/kg×10 d, 0.2 mL/d • c. Group treated with octyl hexaoside 18′: IP 10 mg/kg×10 d, 0.2 mL/d • d. Group treated with heptasaccharide 24: IP 10 mg/kg×10 d, 0.2 mL/d • e. Group treated with sulfated hexaose 25: IP 10 mg/kg×10 d, 0.2 mL/d • f. Group treated with cyclophosphamide: IP, 70 mg/kg×10 d, 0.1 mL/d (Cyclophosphamide was given to the mice by intraperitoneal at 24 h after the planting. After 48 h of the 1st injection, the 2nd injection was given, and after 48 h of the 2nd injection, the last injection was given). Test: U14 cells obtained from U14 mouse were diluted and counted. Each mouse was implanted with 0.2 ml (corresponding to 4×10^6 cells). A total of sixty mice were implanted. B. Test Results
1 h post administration of the last dose, the mice were weighed. The right-upper arm of the mice was cut after sterilization, and the tumor section was removed. The quotient of noumenal tumor (%) and inhibition (%) were calculated.

spleen B lymphocytes = experiment: Immune enhancing activity: 3H-thymidine incorporation of spleen B lymphocytes from treated C57 mice, stimulated with Bal/bc lymphocytes; type: in vivo; details: 0.1 mL/d × 8d
Procedure: a. Medicine and reagents: synthetic lentinan hexaose 18, synthetic lentinan methyl α-heptaoside 24, synthetic lentinan octyl hexaoside 18′, lentinan (brand: Tian Di Xin) is produced by Nanjing Zhenzhong Biotech Ltd.
b. Animals: C57 mice were provided by Animal Center, Academia Sinica, weighing 20±2 g.
c. grouping and administration: the 50 mice were randomly allocated to 10 groups according to weight
The mice were injected IP with different doses of lentinan oligosaccharides listed above. […] Then the spleen B lymphocytes were extracted. The following experiment was then performed with the extracted lymphocytes: the 10^6 B cells were transferred to 96-well “U” shaped bottom plate, then the lymphocytes of Bal/bc mice were used as antigens to stimulate the B cells. After 4 days, ^3H-Thymidine was intermingled with the system and the B cells were collected 18 hours after. The isotopic incorporation was assessed by scintillation counting. Compared with positive control and minus control, the immuno-enhanced effect of these oligosaccharides was evaluated.

[1] = system: leukocyte infiltrate in air pouch; experiment: Thioglycollate-induced air pouch inflammation in mice; type: in vivo, mouse; details: dose 25 mg/kg subq.
Procedure: Test method: Subcutaneous air pouches were formed on the backs of mice by injecting 5 mL of sterile air below the skin of a shaved area between the scapulae of an anaesthetized mouse. After 2 days post-injection the pouch was reinflated by the injection of 2.5 mL of air. Inflammation was induced on day 6 by injecting directly into the pouch 1.0 mL of 56 mg/mL thioglycollate or 1.0 mL of saline as a control. Approximately 17-20 h after thioglycollate injection, the animals were killed, and the cellular contents of the pouch retrieved by the injection of 2.5 mL of PBS/5% FCS. The sulfated octyl hexaoside 25 was tested for its ability to inhibit the inflammatory reaction by being injected subq. in a separate site immediately following administration of the thioglycollate. Prednisolone was used as a control anti-inflammatory drug, and was injected subq. at 25 mg/kg. The total cellular contents of each pouch were determined using a Coulter Counter and different leukocyte subpopulations were assessed by immunofluorescent flow cytometry.

[2] = IP 10 mg/kg×10 d (dose of 17 not given)
[3] = IP 10 mg/kg, relative to control

| SMILES | inhibition (%) (U14 tumor cells; [2]) | quotient of noumenal tumor (%) (U14 tumor cells; [2]) | 3H-TdR incorporation (spleen B lymphocytes; IP 1 mg/kg, control 3394) | enhancement rate (%) (spleen B lymphocytes; IP 1 mg/kg, control = 100) | 3H-TdR incorporation (spleen B lymphocytes; IP 10 mg/kg, control 3045) | enhancement rate (%) (spleen B lymphocytes; [3]) | inhibition (%) (U14 tumor cells; cyclophosphamide IP 70 mg/kg) | quotient of noumenal tumor (%) (U14 tumor cells; cyclophosphamide IP 70 mg/kg) | weight (U14 tumor cells; mouse weight 1 h after last dose, cyclophosphamide IP 70 mg/kg) | leukocyte infiltrate in air pouch in comparison to the control [1] |
| --- | --- | --- | --- | --- | --- | --- | --- | --- | --- | --- |
| CCCCCCCCOC1OC(COC2OC(CO)C(O)C(O)C2O)C(O)C(OC2OC(CO)C(O)C(OC3OC(COC4OC(CO)C(O)C(O)C4O)[C@@H](O)C(OC4OC(CO)C(O)C(O)C4O)C3O)C2O)C1O (stereo partly shown) [18′] | 58.43% | 1.54 ± 0.56 % | 5547 | 163% | 6082 | 200% | – | – | – | – |
| OCC1OC(OCC2OC(O)C(O)C(OC3OC(CO)C(O)C(OC4OC(COC5OC(CO)C(O)C(O)C5O)[C@@H](O)C(OC5OC(CO)C(O)C(O)C5O)C4O)C3O)C2O)C(O)C(O)C1O (stereo partly shown) [compound 18] | 29.41% | 2.63 ± 0.90% | 5497 | 162% | 6084 | 200% | – | – | – | – |
| COC1OC(CO)[C@@H](O)C(O[C@H]2OC(CO[C@@H]3OC(CO)[C@@H](O)C(O)C3O)[C@@H](O)C(O[C@@H]3OC(CO)[C@@H](O)C(O[C@H]4OC(CO[C@@H]5OC(CO)[C@@H](O)C(O)C5O)[C@@H](O)C(O[C@@H]5OC(CO)[C@@H](O)C(O)C5O)C4O)C3O)C2O)C1O (stereo partly shown) [compound 24] | 41.21% | 2.54 ± 1.89% | 5546 | 163% | 5087 | 167% | – | – | – | – |
| O=P1(N(CCCl)CCCl)NCCCO1 (stereo not shown) [cyclophosphamide, Cyclophosphamide, reference compound] | – | – | – | – | – | – | 43.89% | 1.86 ± 0.73 % | 28.00 ± 1.78 g | – |
| C[C@]12C=CC(=O)C=C1CC[C@@H]1[C@@H]2[C@@H](O)C[C@@]2(C)[C@H]1CC[C@]2(O)C(=O)CO [prednisolone, Prednisolone] | – | – | – | – | – | – | – | – | – | 56±14% |
